Laboratory results reported in article PMC5793130, “The Peptide PnPP-19, a Spider Toxin Derivative, Activates μ-Opioid Receptors and Modulates Calcium Channels” (Toxins, 2018).

Legend:
[1] = system: μ-opioid receptors; settings: cited from earlier work
[2] = system: calcium channels in dorsal root ganglion (DRG) neurons; format: cell-based; settings: rat DRG neurons
Description: Intact neurons of rat dorsal root ganglia (DRG) were used for whole-cell patch-clamp recordings.
DRGs were isolated from adult Wistar rats (200 ± 300 g) and neurons cultured as described by Lindsay (1988) [35] with minor modifications. The neurons were isolated and washed by gravity in phosphate-buffered saline (PBS). The cells were than incubated with collagenase type IV (sigma, St. Louis, MO, USA) solution (5 mL of Dulbecco’s modified Eagle’s medium—DMEM; 10% v/v fetal bovine serum; penicillin 200 units/mL—streptomycin 200 μg/mL; 12.5 mg of collagenase type IV) for 90 min at 37 °C. After that, ganglions were washed 3 times by gravity in PBS and trypsin solution (2500–6000 BAEE U/ML, sigma, St. Louis, MO, USA) was added. In order to dissociate the DRG neurons, the ganglions were taken up and down with the use of a fine tipped transfer pipette. Cells were then incubated with the trypsin solution for 10 min at 37 °C. After the incubation period, 1 mL of bovine serum albumin (BSA) solution (16% v/v in PBS) was added and cells were more firmly dissociated. The cell suspension was added on the top of 3 mL BSA solution and centrifuged at 500× g for 6 min. The supernatant was discarded and the pellet was resuspended in complete media (DMEM media; 10% v/v fetal bovine serum; 1% v/v penicillin/streptomycin; 0.1% v/v NGF). […]

[3] = system: μ-opioid receptor-β-arrestin2 association; assay: BiFC β-arrestin2 recruitment in HEK293T cells; format: cell-based; settings: HEK293T coexpressing μ-opioid receptor-Yc and β-arrestin2-Yn; 10^−10 M–10^−4 M, 60 min, 37 °C; normalized by 10 μM DAMGO (100%); n = 5
Description: HEK293T were cultured in DMEM (Sigma-Aldrich) supplemented with 10% v/v fetal bovine serum. […] To analyze whether activation of μ-opioid receptor would induce recruitment of β-arrestin2, the Bimolecular fluorescence complementation (BiFC) based detection of μ-opioid receptor-β-arrestin2 association was conducted. The cells were seeded at 33,000 cells/well onto poly (D-lysine)-coated Greiner 655,090 imaging plates. Plates were kept in a humidified incubator at 37 °C filled with 5% CO2 for 24 h. […] After that, cells were fixated with 3% paraformaldehyde in PBS for 10 min at room temperature. Then, cells were washed once with PBS and the cell nuclei were stained for 15 min with H33342 (2 μg/mL in PBS, Sigma, St. Louis, MO, USA). H33342 was then removed by a final PBS wash. Images (4 central sites/well) were acquired automatically on the IX Ultra confocal plate reader, using 405 nm/488 nm laser lines for H33342 and complemented YFP excitation, respectively. Data was analyzed by the use of MetaXpress software (version 5.3, Sunnyvale, CA, USA, 2013) as described by Liu and co-authors [38] and normalized by 10 μM of DAMGO (100%).

C[C@@H](Cc1ccsc1)NC(=O)NC[C@H](Cc1ccc(O)cc1)N(C)C [PZM21]
β-arrestin2 recruitment [1]: minimal β-arrestin2 recruitment

C=CCN1CC[C@]23c4c5ccc(O)c4O[C@H]2C(=O)CC[C@@]3(O)[C@H]1C5 [naloxone]
effect of naloxone alone on calcium current density ([2]; 10 μM naloxone): no significant effect on the current density
effect of naloxone pre-incubation on PnPP-19 inhibition of calcium current ([2]; 10 μM naloxone for 30 min, then 1 μM PnPP-19): completely blocks the activity of PnPP-19

[D-Ala^2, MePhe^4, Gly-ol^5] encephalin [DAMGO]
β-arrestin2 recruitment [3]: could clearly induce β-arrestin2 recruitment
